From patent US10570121B2, “Substituted dihydroisoquinolinone compounds” (priority 2014, dated 2020) come the findings set out here.

One assay deals with WT EZH2 (Homo sapiens (Human), UniProt Q15910). Kind of assay: WT EZH2 nucleosome assay (10X SAM, high SAM conditions). The class given is biochemical. Particulars: 15 uM SAM, Ki app from competitive inhibition fit. The method, then:
(§1) The genes for EZH2, EED, SUZ12, and RBBP4 proteins were cloned into pBacPAK9 vectors (Clontech). RBBP4 was FLAG tagged on the N-terminal end. The baculovirus expressions of these proteins were used to co-infect SF9 insect cells. Insect cell pellets were lysed in a buffer containing 25 mM Tris pH8.0, 300 mM NaCl, 0.5 mM TCEP, complete EDTA-free protease inhibitor (Roche), 0.1% NP-40. The supernatant from the lysate was incubated with FLAG® M2 antibody resin (Sigma). The resin was washed on the chromatography column and eluted with 0.2 mg/ml FLAG peptide. The elute was incubated with omnicleave nucleases (Epicentre Technologies) at 4° C. overnight, then concentrated and loaded onto a Superdex 200 (GE Healthcare) column. The Superdex 200 column was eluted with 25 mM Tris pH8.0, 150 mM NaCl, 0.5 mM TCEP. Fractions containing the PRC2 complex were pooled.
(§2) A. Compound preparation • 1.
(§3) B. Reagent preparation • 1. […] Dilute TCA to 20% in DI water
(§4) C. Enzyme reaction • 1. […] Some compounds were tested under high SAM conditions.
(§5) D. Data analysis • 1. IC50 values were determined by fitting the data to a 4-parameter IC50 equation using proprietary curve fitting software. • 2. For compounds tested under high SAM conditions, Ki^app values were obtained by fitting the dose response curve to a model for competitive inhibition using proprietary curve fitting software. Preparation of HeLa Oligonucleosomes: Reagents • Cell Pellet: 15 L HeLa S3 (Accelgen)+6 L HeLa S3 (in house) • Mnase (Worthington Biochemicals) Equipment • SW-28 Rotor • Dounce Homogenizer/B Pestle Buffers • Lysis: 20 mM Hepes pH 7.5, 0.25M Sucrose, 3 mM MgCl2, 0.5% Nonidet P-40, 0.5 mM TCEP, 1 Roche Protease Tablet • B: 20 mM Hepes pH7.5, 3 mM MgCl2, 0.5 mM EDTA, 0.5 mM TCEP, 1 Roche Protease Tablet • MSB: 20 mM Hepes pH7.5, 0.4 M NaCl, 1 mM EDTA, 5% v/v Glycerol, 0.5 mM TCEP, 0.2 mM PMSF • LSB: 20 mM Hepes pH7.5, 0.1M NaCl, 1 mM EDTA, 0.5 mM TCEP, 0.2 mM PMSF • NG: 20 mM Hepes pH7.5, 1 mM EDTA, 0.4 m NaCl, 0.2 mM PMSF, 0.5 mM TCEP • Storage: 20 mM Hepes pH7.5, 1 mM EDTA, 10% Glycerol, 0.2 mM PMSF, 0.5 mM TCEP Protocol

The next assay addresses EZH2 Mutant Y641N (Homo sapiens (Human), UniProt Q15910, Y641N). In words: EZH2 Mutant Y641N nucleosome assay. The class given is biochemical. Particulars: PRC2 4-protein complex 6 nM, 1.5 μM SAM, HeLa oligonucleosomes. The method, then: as §1, §2, §3, §4, §5
The mark [1] stands for this setting: read-out: WT EZH2 Nucleosome assay (10X SAM) Ki.
Setting [2] is: read-out: EZH2 Mutant Y641N Nucleosome assay IC50.
The mark [3] stands for this setting: WT EZH2 Nucleosome assay (10X SAM) Ki (μM).
Where [4] appears, read: EZH2 Mutant Y641N Nucleosome assay IC50 (μM).

Where two headings read alike, the source gives them in different places.

Chain of WT EZH2 (Q15910 whole entry, looked up): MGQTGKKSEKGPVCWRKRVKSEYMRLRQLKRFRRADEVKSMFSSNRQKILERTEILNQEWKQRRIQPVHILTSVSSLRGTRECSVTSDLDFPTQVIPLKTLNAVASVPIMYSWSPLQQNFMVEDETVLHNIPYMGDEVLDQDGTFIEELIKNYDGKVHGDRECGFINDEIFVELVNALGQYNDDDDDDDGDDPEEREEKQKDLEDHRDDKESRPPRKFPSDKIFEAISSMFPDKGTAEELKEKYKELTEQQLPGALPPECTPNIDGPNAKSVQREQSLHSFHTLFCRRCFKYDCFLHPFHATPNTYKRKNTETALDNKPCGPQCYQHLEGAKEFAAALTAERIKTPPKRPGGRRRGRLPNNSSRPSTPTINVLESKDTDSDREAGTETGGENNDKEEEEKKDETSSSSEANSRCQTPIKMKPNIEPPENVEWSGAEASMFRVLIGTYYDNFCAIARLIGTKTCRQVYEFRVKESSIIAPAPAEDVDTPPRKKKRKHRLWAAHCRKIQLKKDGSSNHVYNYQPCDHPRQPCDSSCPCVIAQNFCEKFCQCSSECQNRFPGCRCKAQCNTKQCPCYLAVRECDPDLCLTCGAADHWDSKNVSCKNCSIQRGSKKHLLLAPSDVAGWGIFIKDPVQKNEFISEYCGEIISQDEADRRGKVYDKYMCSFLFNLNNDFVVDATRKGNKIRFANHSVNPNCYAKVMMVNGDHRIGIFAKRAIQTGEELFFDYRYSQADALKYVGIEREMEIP
Chain of WT EZH2 (O75530 whole entry partner, looked up): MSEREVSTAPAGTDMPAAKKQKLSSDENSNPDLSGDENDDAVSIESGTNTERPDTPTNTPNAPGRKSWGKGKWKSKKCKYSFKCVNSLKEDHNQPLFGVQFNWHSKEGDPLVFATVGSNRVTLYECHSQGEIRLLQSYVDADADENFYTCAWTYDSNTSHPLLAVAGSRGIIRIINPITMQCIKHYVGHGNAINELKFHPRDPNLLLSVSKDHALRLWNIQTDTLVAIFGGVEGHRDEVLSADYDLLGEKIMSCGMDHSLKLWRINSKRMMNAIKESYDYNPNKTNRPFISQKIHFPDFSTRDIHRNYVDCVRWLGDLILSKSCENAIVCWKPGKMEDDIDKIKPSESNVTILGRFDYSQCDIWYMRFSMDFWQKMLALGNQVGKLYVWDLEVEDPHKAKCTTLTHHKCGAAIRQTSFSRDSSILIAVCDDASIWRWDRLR
Chain of WT EZH2 (Q15022 whole entry partner, looked up): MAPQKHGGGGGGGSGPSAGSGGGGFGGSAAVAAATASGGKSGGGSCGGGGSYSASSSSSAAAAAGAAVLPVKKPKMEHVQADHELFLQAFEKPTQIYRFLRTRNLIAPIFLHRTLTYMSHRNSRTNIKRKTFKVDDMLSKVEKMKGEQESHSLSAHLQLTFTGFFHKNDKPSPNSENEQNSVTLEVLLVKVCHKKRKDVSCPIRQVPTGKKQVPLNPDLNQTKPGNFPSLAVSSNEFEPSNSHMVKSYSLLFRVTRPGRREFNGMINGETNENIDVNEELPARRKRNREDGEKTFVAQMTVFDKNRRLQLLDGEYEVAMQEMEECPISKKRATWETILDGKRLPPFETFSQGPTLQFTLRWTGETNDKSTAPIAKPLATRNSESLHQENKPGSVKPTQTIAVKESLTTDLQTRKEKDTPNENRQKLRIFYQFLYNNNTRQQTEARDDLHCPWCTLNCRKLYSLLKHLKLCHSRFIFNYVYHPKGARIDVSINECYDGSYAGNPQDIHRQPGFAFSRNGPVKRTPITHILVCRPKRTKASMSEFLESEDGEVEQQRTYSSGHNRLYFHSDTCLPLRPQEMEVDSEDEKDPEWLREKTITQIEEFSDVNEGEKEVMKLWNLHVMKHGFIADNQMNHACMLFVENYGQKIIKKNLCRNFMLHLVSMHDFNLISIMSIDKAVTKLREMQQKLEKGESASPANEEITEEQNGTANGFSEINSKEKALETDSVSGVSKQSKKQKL
Chain of WT EZH2 (Q09028 whole entry partner, looked up): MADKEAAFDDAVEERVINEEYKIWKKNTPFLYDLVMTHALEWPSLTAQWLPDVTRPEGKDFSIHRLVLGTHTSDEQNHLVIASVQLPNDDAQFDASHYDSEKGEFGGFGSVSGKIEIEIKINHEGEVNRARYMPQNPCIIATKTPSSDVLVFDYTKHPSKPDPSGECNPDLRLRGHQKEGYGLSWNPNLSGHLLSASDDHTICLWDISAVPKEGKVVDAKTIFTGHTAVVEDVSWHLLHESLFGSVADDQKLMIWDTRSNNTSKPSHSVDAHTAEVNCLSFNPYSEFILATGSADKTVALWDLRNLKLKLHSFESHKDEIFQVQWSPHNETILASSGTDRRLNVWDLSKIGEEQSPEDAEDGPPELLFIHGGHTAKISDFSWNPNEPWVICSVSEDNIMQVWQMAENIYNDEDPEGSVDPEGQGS
Chain of EZH2 Mutant Y641N (Q15910 whole entry Y641N, looked up): as the sequence (Q15910 whole entry, looked up) above, with Y641N counted along it
Chain of EZH2 Mutant Y641N (O75530 whole entry partner, looked up): as the sequence (O75530 whole entry partner, looked up) above
Chain of EZH2 Mutant Y641N (Q15022 whole entry partner, looked up): as the sequence (Q15022 whole entry partner, looked up) above
Chain of EZH2 Mutant Y641N (Q09028 whole entry partner, looked up): as the sequence (Q09028 whole entry partner, looked up) above

Turning to `COC(c1cc(Cl)c2c(c1Cl)C(=O)N(Cc1c(C)cc(C)[nH]c1=O)CC2)C1CCS(=O)(=O)C1` (single isomer, unassigned) [Example 148], on WT EZH2 (setting [1]), the Ki stood at 56 nM. Besides, the concentration for half-maximal inhibition (IC50) at EZH2 Mutant Y641N (setting [2]) is 0.439 µM.
For `Cc1cc(C)c(CN2CCc3c(Cl)cc(C(C)C4CN(C(=O)CO)C4)c(Cl)c3C2=O)c(=O)[nH]1` (single isomer, unassigned) [Example 184] the same measures were 0.6 nM and 0.005 µM.
For `COC(c1cc(Cl)c2c(c1Cl)C(=O)N(Cc1c(C)cc(C)[nH]c1=O)CC2)C1CN(C(=O)[C@@H](C)O)C1` (single isomer, unassigned) [Example 171] the same measures were 328 nM and 2.63 µM.
On the same counts, the results for `Cc1cc(C)c(CN2CCc3c(Cl)cc(C(CO)N4CCOCC4)c(Cl)c3C2=O)c(=O)[nH]1` (single isomer, unassigned) [Example 69] are 417 nM and 4.31 µM.
As for `COc1cc(C)[nH]c(=O)c1CN1CCc2c(Cl)cc(C(C)C3CN(C)C3)c(Cl)c2C1=O` (single isomer, unassigned) [Example 88, 5,8-dichloro-2-[(4-methoxy-6-methyl-2-oxo-1,2-dihydropyridin-3-yl)methyl]-7-[1-(1-methylazetidin-3-yl)ethyl]-3,4-dihydroisoquinolin-1 (2H)-one], the Ki on WT EZH2 (setting [1]) came to 28 nM. The IC50 on EZH2 Mutant Y641N (setting [2]) stood at 0.122 µM.
On the same counts, the results for `Cc1cc(C)c(CN2CCc3c(Cl)cc(C(C)C4CN(C(=O)CO)C4)c(Cl)c3C2=O)c(=O)[nH]1` (single isomer, unassigned) [Example 183] are 56 nM and 0.517 µM.
On the same counts, the results for `COc1cc(C)[nH]c(=O)c1CN1CCc2c(C)cc(C(OC)C3CCS(=O)(=O)CC3)c(Cl)c2C1=O` (single isomer, unassigned) [Example 130] are 220 nM and 1.99 µM.
For `COC(c1cc(C)c2c(c1Cl)C(=O)N(Cc1c(C)cc(C)[nH]c1=O)CC2)C1CCN(C2COC2)CC1` (single isomer, unassigned) [Example 154] the same measures were 44.6 nM and 0.553 µM.
Regarding `COC(c1cc(Cl)c2c(c1Cl)C(=O)N(Cc1c(C)cc(C)[nH]c1=O)CC2)C1CCN(C)CC1` (single isomer, unassigned) [Example 136], the Ki on WT EZH2 (setting [3]) amounted to 0.1 nM. Further, on EZH2 Mutant Y641N (setting [4]), the IC50 was 0.003 µM.
With `CC(=O)N1CC(=C(C)c2cc(Cl)c3c(c2Cl)C(=O)N(Cc2c(C)cc(C)[nH]c2=O)CC3)C1` [Example 76], the Ki on WT EZH2 (setting [1]) amounted to 5 nM. Also, the IC50 on EZH2 Mutant Y641N (setting [2]) is 0.043 µM.
Turning to `COC(c1cc(Cl)c2c(c1Cl)C(=O)N(Cc1c(C)cc(C)[nH]c1=O)CC2)C1CCOC1` (single isomer, unassigned) [Example 162], at WT EZH2 (setting [3]), the Ki was 148 nM. The compound further returned an IC50 at EZH2 Mutant Y641N (setting [4]) of 2.97 µM.
As for `COc1cc(C)[nH]c(=O)c1CN1CCc2c(Cl)cc(C(C)C3CN(C)C3)c(Cl)c2C1=O` (single isomer, unassigned) [Example 87, 5,8-dichloro-2-[(4-methoxy-6-methyl-2-oxo-1,2-dihydropyridin-3-yl)methyl]-7-[1-(1-methylazetidin-3-yl)ethyl]-3,4-dihydroisoquinolin-1 (2H)-one], the Ki on WT EZH2 (setting [1]) was found to be 0.01 nM. The IC50 on EZH2 Mutant Y641N (setting [2]) is 0.002 µM.
On the same counts, the results for `CC(=C1CCNCC1)c1cc(Cl)c2c(c1Cl)C(=O)N(Cc1c(C)cc(C)[nH]c1=O)CC2` [Example 80] are 1 nM and 0.007 µM.
For `Cc1cc(C)c(CN2CCc3c(Cl)cc([C@H](CO)[C@@H]4CCCO4)c(Cl)c3C2=O)c(=O)[nH]1` [Example 12, 5,8-dichloro-2-[(4,6-dimethyl-2-oxo-1,2-dihydropyridin-3-yl)methyl]-7-{(1R)-2-hydroxy-1-[(2S)-tetrahydrofuran-2-yl]ethyl}-3,4-dihydroisoquinolin-1(2H)-one] the same measures were 4 nM and 0.016 µM.
On the same counts, the results for `COC(c1cc(Cl)c2c(c1Cl)C(=O)N(Cc1c(C)cc(C)[nH]c1=O)CC2)[C@@H](C)CO` (single isomer, unassigned) [Example 142] are 8 nM and 0.109 µM.
Regarding `COc1cc(C)[nH]c(=O)c1CN1CCc2c(Cl)cc(C(OC)C3CCN(C=O)CC3)c(Cl)c2C1=O` (single isomer, unassigned) [Example 118], the Ki on WT EZH2 (setting [1]) came out at 0.1 nM. In addition, the IC50 on EZH2 Mutant Y641N (setting [2]) came to 0.003 µM.
`CCOC(c1cc(Cl)c2c(c1Cl)C(=O)N(Cc1c(C)cc(C)[nH]c1=O)CC2)C1CS(=O)(=O)C1` (single isomer, unassigned) [Example 158]: the Ki on WT EZH2 (setting [3]) is 578 nM. Further, on EZH2 Mutant Y641N (setting [4]), half-maximal inhibition (IC50) was put at 5.13 µM.
Take `COC(c1ccc2c(c1Cl)C(=O)N(Cc1c(C)cc(C)[nH]c1=O)CC2)C1CCOC1` (single isomer, unassigned) [Example 133]: at WT EZH2 (setting [1]), the Ki is 837 nM. Besides, on EZH2 Mutant Y641N (setting [2]), the IC50 came to 8.64 µM.
Take `COC(c1cc(Cl)c2c(c1Cl)C(=O)N(Cc1c(C)cc(C)[nH]c1=O)CC2)C1CCN(C2COC2)CC1` (single isomer, unassigned) [Example 156]: the Ki at WT EZH2 (setting [3]) amounted to 375 nM. The same compound registered a 50% inhibitory concentration (IC50) against EZH2 Mutant Y641N (setting [4]) of 1.71 µM.
Consider `COC(c1cc(Cl)c2c(c1Cl)C(=O)N(Cc1c(C)cc(C)[nH]c1=O)CC2)C1CC[S+]([O-])CC1` (single isomer, unassigned) [Example 114], for which, on WT EZH2 (setting [1]), the Ki turned out to be 16 nM. The IC50 at EZH2 Mutant Y641N (setting [2]) amounted to 0.152 µM.
For `Cc1cc(C)c(CN2CCc3c(Cl)cc(C(C)C4CN(C)C4)c(Cl)c3C2=O)c(=O)[nH]1` (single isomer, unassigned) [Example 187] the same measures were 1 nM and 0.01 µM.
For `Cc1cc(C)c(CN2CCc3c(C)cc(C(CO)C4CCOCC4)c(Cl)c3C2=O)c(=O)[nH]1` (single isomer, unassigned) [Example 101] the same measures were 0.3 nM and 0.007 µM.
In the case of `COc1cc(C)[nH]c(=O)c1CN1CCc2c(Cl)cc(C(OC)C3CCN(C(C)=O)CC3)c(Cl)c2C1=O` (single isomer, unassigned) [Example 123], the Ki at WT EZH2 (setting [1]) came out at 0.2 nM. Further, the IC50 on EZH2 Mutant Y641N (setting [2]) was found to be 0.005 µM.
For the compound `Cc1cc(OC(F)F)c(CN2CCc3c(Cl)cc(C(CO)C4CCOC4)c(Cl)c3C2=O)c(=O)[nH]1` (single isomer, unassigned) [Example 95], at WT EZH2 (setting [1]), the Ki stood at 1 nM. For the same compound, the IC50 at EZH2 Mutant Y641N (setting [2]) was 0.012 µM.
On the same counts, the results for `CC(=C1CNC1)c1cc(Cl)c2c(c1Cl)C(=O)N(Cc1c(C)cc(C)[nH]c1=O)CC2` [Example 74, 7-(1-(azetidin-3-ylidene)ethyl)-5,8-dichloro-2-((4,6-dimethyl-2-oxo-1,2-dihydropyridin-3-yl)methyl)-3,4-dihydroisoquinolin-1(2H)-one] are 5 nM and 0.051 µM.
For `Cc1cc(C)c(CN2CCc3ccc(C(CO)C4CCOC4)c(Cl)c3C2=O)c(=O)[nH]1` (single isomer, unassigned) [Example 99] the same measures were 3 nM and 0.017 µM.
Consider `COC(c1cc(Cl)c2c(c1Cl)C(=O)N(Cc1c(C)cc(C)[nH]c1=O)CC2)C1(O)CCOCC1` (single isomer, unassigned) [Example 53], for which the Ki at WT EZH2 (setting [1]) was 1 nM. Besides, the IC50 at EZH2 Mutant Y641N (setting [2]) amounted to 0.017 µM.
On the same counts, the results for `COC(c1cc(Cl)c2c(c1Cl)C(=O)N(Cc1c(C)cc(C)[nH]c1=O)CC2)C1CN(C(=O)[C@H](C)O)C1` (single isomer, unassigned) [Example 173] are 16 nM and 0.206 µM.

By IC50 is commonly meant the midpoint of a concentration-inhibition curve.
